{"source": "paper doi:10.1101/2024.06.13.594677v1", "about": "(biorxiv, 2024)", "key": {"[1]": {"target": "T1, human 5-HT2A receptor (Homo sapiens, UniProt P28223)", "T1 sequence (P28223 whole entry)": "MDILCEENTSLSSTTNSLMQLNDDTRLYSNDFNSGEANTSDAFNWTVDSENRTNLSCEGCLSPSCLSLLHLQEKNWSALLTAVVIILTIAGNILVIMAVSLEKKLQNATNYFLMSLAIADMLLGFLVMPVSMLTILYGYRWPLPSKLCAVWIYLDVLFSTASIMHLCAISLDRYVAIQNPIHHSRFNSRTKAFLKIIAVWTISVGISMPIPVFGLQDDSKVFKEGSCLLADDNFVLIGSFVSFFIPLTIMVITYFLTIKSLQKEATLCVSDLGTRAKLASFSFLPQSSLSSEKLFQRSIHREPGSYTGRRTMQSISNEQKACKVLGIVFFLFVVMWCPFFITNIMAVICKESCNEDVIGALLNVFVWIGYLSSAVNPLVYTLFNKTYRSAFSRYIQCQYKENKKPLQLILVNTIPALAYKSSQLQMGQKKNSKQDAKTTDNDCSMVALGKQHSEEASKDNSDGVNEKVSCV", "parameters": "species or system SH-SY5Y expressing human 5-HT2A", "settings": "agonist"}, "[2]": {"target": "T2, rat 5-HT2A receptor (Rattus norvegicus, UniProt P14842)", "T2 sequence (P14842 whole entry)": "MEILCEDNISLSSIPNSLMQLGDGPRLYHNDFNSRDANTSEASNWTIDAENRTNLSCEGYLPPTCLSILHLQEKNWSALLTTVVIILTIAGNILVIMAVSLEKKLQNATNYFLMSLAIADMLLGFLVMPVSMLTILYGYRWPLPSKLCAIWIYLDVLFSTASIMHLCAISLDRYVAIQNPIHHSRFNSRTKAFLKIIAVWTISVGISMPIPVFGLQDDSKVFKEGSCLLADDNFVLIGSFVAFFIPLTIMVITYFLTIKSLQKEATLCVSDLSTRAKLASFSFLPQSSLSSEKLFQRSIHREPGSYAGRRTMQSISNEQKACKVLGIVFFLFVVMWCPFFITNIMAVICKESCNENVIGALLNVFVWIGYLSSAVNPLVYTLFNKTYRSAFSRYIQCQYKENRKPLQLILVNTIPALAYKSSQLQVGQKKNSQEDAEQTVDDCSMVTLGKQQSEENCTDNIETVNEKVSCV"}, "[3]": {"target": "T1, human 5-HT2A receptor", "parameters": "species or system SH-SY5Y expressing human 5-HT2A", "settings": "agonist", "remark": "listed apart in the source"}, "[4]": {"target": "T1, human 5-HT2A receptor", "parameters": "species or system SH-SY5Y expressing human 5-HT2A", "settings": "agonist", "remark": "listed apart in the source"}, "[5]": {"target": "T2, rat 5-HT2A receptor", "parameters": "species or system C6 glioma (endogenous rat 5-HT2A)", "settings": "relative to 10 uM 5-HT; agonist"}, "[6]": {"target": "T2, rat 5-HT2A receptor", "test": "cytosolic Ca2+", "type": "cell-based", "settings": "Gq/Ca2+ agonism; room temperature; HBSS with Ca2+"}, "[7]": {"target": "T1, human 5-HT2A receptor", "type": "cell-based", "settings": "Gq/Ca2+ agonism; room temperature; HBSS with Ca2+"}, "[8]": {"target": "T1, human 5-HT2A receptor", "type": "cell-based", "settings": "Gq/IP1 agonism; LiCl; […] °C, […] h"}, "[9]": {"target": "T1, human 5-HT2A receptor", "type": "cell-based", "settings": "beta-arrestin2 agonism; GRK2 and GRK3 co-expressed; DPBS with Ca2+; […] min"}}, "note": "Where two headings read alike, the source gives them in different places.", "data": [{"compound": "COc1ccc2[nH]cc(CCN(C)C)c2c1", "note": "[5-MeO-DMT, 5-methoxy-N,N-dimethyltryptamine]", "values": [{"measurement": "Ca2+ Emax", "setting": "[1]", "value": "0.73 ± 0.033"}, {"measurement": "EC50", "setting": "[2]", "value": 240, "unit": "nM"}, {"measurement": "β-arrestin2 Emax", "setting": "[3]", "value": "0.70 ± 0.020"}, {"measurement": "IP1 Emax", "setting": "[4]", "value": "0.93 ± 0.027"}, {"measurement": "Ca2+ Emax (C6)", "setting": "[5]", "value": "0.36 ± 0.021", "unit": "%"}]}, {"compound": "COc1cc(CCNCc2ccccc2OC)c(OC)cc1Br", "note": "[25B-NBOMe, 4-bromo-2,5-dimethoxy-N-(2-methoxybenzyl)phenethylamine]", "values": [{"measurement": "pEC50", "setting": "[6]", "value": "8.10 ± 0.23"}, {"measurement": "pEC50", "setting": "[7]", "value": "7.84 ± 0.15"}, {"measurement": "pEC50", "setting": "[8]", "value": "8.95 ± 0.28"}, {"measurement": "pEC50", "setting": "[9]", "value": "8.20 ± 0.079"}]}, {"compound": "COc1cc(CCNCc2ccccc2OC)c(OC)cc1Br", "note": "[25B-NBOMe]", "values": [{"measurement": "Ca2+ Emax", "setting": "[1]", "value": "0.57 ± 0.021"}, {"measurement": "β-arrestin2 Emax", "setting": "[3]", "value": "0.88 ± 0.017"}, {"measurement": "IP1 Emax", "setting": "[4]", "value": "0.75 ± 0.040"}, {"measurement": "Ca2+ Emax (C6)", "setting": "[5]", "value": "0.46 ± 0.027", "unit": "%"}]}, {"compound": "COc1cc(CC(C)N)c(OC)cc1I", "note": "(stereo not shown) [DOI, 2,5-dimethoxy-4-iodoamphetamine]", "values": [{"measurement": "Ca2+ Emax", "setting": "[1]", "value": "0.49 ± 0.019"}, {"measurement": "pEC50", "setting": "[6]", "value": "7.14 ± 0.16"}, {"measurement": "β-arrestin2 Emax", "setting": "[3]", "value": "0.73 ± 0.027"}, {"measurement": "IP1 Emax", "setting": "[4]", "value": "1.12 ± 0.025"}, {"measurement": "Ca2+ Emax (C6)", "setting": "[5]", "value": "0.32 ± 0.017", "unit": "%"}]}, {"compound": "CCN(CC)C(=O)[C@@H]1C=C2c3cccc4[nH]cc(c34)C[C@H]2N(C)C1", "note": "[LSD]", "values": [{"measurement": "Ca2+ Emax", "setting": "[1]", "value": "0.36 ± 0.027"}, {"measurement": "IP1 Emax", "setting": "[4]", "value": "0.78 ± 0.039"}, {"measurement": "Ca2+ Emax (C6)", "setting": "[5]", "value": "0.19 ± 0.0092", "unit": "%"}]}, {"compound": "COc1cc(CCN)cc(OC)c1OC", "note": "[Mescaline, 3,4,5-trimethoxyphenethylamine]", "values": [{"measurement": "Ca2+ Emax", "setting": "[1]", "value": "0.47 ± 0.031"}, {"measurement": "EC50", "setting": "[2]", "value": 295, "unit": "nM"}, {"measurement": "β-arrestin2 Emax", "setting": "[3]", "value": "0.64 ± 0.059"}, {"measurement": "IP1 Emax", "setting": "[4]", "value": "0.81 ± 0.050"}, {"measurement": "Ca2+ Emax (C6)", "setting": "[5]", "value": "0.40 ± 0.025", "unit": "%"}]}, {"compound": "COc1ccc2c3c([nH]c2c1)CCN(C)CC3", "note": "[TBG]", "values": [{"measurement": "Ca2+ Emax", "setting": "[1]", "value": "0.13 ± 0.033"}, {"measurement": "β-arrestin2 Emax", "setting": "[3]", "value": "0.19 ± 0.026"}, {"measurement": "IP1 Emax", "setting": "[4]", "value": "0.35 ± 0.064"}]}, {"compound": "CN(C)CCc1c[nH]c2cccc(O)c12", "note": "[psilocin]", "values": [{"measurement": "Ca2+ Emax", "setting": "[1]", "value": "0.40 ± 0.019"}, {"measurement": "pEC50", "setting": "[6]", "value": "7.15 ± 0.20"}, {"measurement": "β-arrestin2 Emax", "setting": "[3]", "value": "0.28 ± 0.019"}, {"measurement": "IP1 Emax", "setting": "[4]", "value": "0.80 ± 0.030"}, {"measurement": "Ca2+ Emax (C6)", "setting": "[5]", "value": "0.12 ± 0.0079", "unit": "%"}]}]}
